Results taken from PMC11600199 (JACS Au, 2024).
Converted amounts (≈) assume the structure as drawn.

Experiments:
[1] = Chemical stability in aqueous 1 M HCl or 1 M NaOH and on shelf storage; type: physicochemical; settings: aqueous 1 M hydrochloric acid or aqueous 1 M sodium hydroxide, room temperature, 1 day
[2] = human liver microsomes
[3] = Kinetic solubility in phosphate-buffered saline pH 7.4; settings: 25 °C, pH 7.4, aqueous buffer, kinetic from dmso stock
Experimental pKa = type: physicochemical; settings: amine hydrochlorides

| SMILES | CLint [2] | solubility kinetic at 2 h [3] | further results |
| --- | --- | --- | --- |
| FC(F)(F)C1(c2cccnc2)CCC1 [12a] |  |  | decomposition on treatment with acid or base [1]: did not lead to any decomposition |
| CN(Cc1ccc(C(C)(C)C)cc1)Cc1cccc2ccccc12 [Butenafine] | 30 mg min^–1 μL^–1 | 10 µM (≈ 3.17 µg/mL) |  |
| CCc1cc(C)cc(CC)c1-c1c(OC(=O)C(C)(C)C)n2n(c1=O)CCOCC2 [Pinoxaden] |  | 358 µM (≈ 143 µg/mL) |  |
| CC(C)(C)C(=O)NNCc1ccccc1 [Pivhydrazine] |  | ≥ 400 µM |  |
| CC(C)N(Cc1ccccc1)C(=O)C(C)(C)C [Tebutam] | 57 mg min^–1 μL^–1 | 324 µM (≈ 75.6 µg/mL) |  |
| CC(C)(C)N.Cl [tert-butyl amine hydrochloride] |  |  | pKa (exp.) (Experimental pKa): 10.69 |
